# In patent US4342780A, “Method of depleting endogenous monoamines” (Merrell-Toraude et Cie, priority 1981, dated 1982):
# How the values were obtained:
# [1] = tested on: catecholamine content (norepinephrine, dopamine); assay: Catecholamine content in organs of rats after oral administration once daily for 15 days (Table III); type: in vivo, rats (Sprague-Dawley); settings: 24 h after 15th dose, vs control; for % CHANGE Brain Dopamine: * not significant
# Description: The test animals (e.g. mice or rats) are given the test compound in a suitable vehicle, either orally or by injection, each day over the period of time desired. The animals are kept on a constant time cycle, and body weights are measured daily. The animals are sacrificed by decapitation 12 to 24 hours after receiving the last dose of the test compound. Control animals receive the vehicle alone.
# Immediately after death, the organs (brain, heart, and kidney) are removed and homogenized either in 50 ml phosphate buffer pH 6.8 for AADC determination or in ice-cold 0.4 M HClO4 containing 0.05% (w/v) EDTA and 0.1% (w/v) sodium bisulfite for catecholamine determination. AADC activity is determined by the ^14 CO2 trapping method of J. Christenson, supra (see Example 14) using DL-[1-^14 C]-dopa as the substrate. Catecholamines are determined by centrifuging the homogenate, adding the supernatant to alumina buffered to pH 8.0-8.4 to adsorb the catecholamines, re-extracting the catecholamines from the alumina with 0.2 M HClO4 and determining the catecholamines in the extracts using known procedures, such as by reversed-phase ion-pair HPLC with electrochemical detection.
# Table III gives the results obtained by testing particular compounds of Formula I in rats (Sprague-Dawley) after oral administration of the test compound once daily for 15 days. AADC activity was not determined.
# [2] = tested on: dopamine, noradrenalin and 5-hydroxytryptamine content; assay: Effect on catecholamines and 5-HT in brain regions of the rat 24 hours post-dose (Table IV); type: in vivo, Male Sprague-Dawley rats; settings: 100 mg/kg i.p., ± S.E.M.
# Description: The following example illustrates the effect of 2-amino-2-fluoromethyl-3-(3,4-dihydroxyphenyl)propionic acid on catecholamines and 5-HT in the brain.
# Male Sprague-Dawley rats (200-300 g) from Charles River, France are housed in groups having free access to food and water. The animals are maintained on a 12 hour light-dark cycle at an ambient temperature of 23° C. The compound 2-amino-2-fluoromethyl-3-(3,4-dihydroxyphenyl)propionic acid is dissolved in 0.9% saline solution and administered as a single dose of 100 mg/kg, i.p. The animals are sacrificed 24 hours later and the brain is dissected on a chilled glass plate into six regions: the striatum, hypothalmus, olfactory tubercles, frontal cortex, cerebellum and brain stem. The tissues are weighed and homogenized in 600 microliters of ice-cold 0.4 Normal HClO4 reagent. The homogenate is centrifuged and dopamine, noradrenalin and 5-hydroxytryptamine are determined by reversed-phase ion-pair high pressure liquid chromatography using electrochemical detection.
# [3] = 5 mg/kg oral once daily 15 days
# [4] = 10 mg/kg oral once daily 15 days
# [5] = 15 mg/kg oral once daily 15 days
# [6] = 20 mg/kg oral once daily 15 days
smiles,measurement,setting,value
"NC(CF)(Cc1ccc(O)c(O)c1)C(=O)O (stereo not drawn) [3,4-diOH-phenyl, 2-Amino-2-fluoromethyl-3-(3,4-dihydroxyphenyl)propionic acid]",% CHANGE Brain Norepinephrine,[1]; [3],-25%
same,% CHANGE Heart Norepinephrine,[1]; [3],-56%
same,% CHANGE Brain Dopamine,[1]; [3],-2%
same,% CHANGE Brain Norepinephrine,[1]; [4],-47%
same,% CHANGE Heart Norepinephrine,[1]; [4],-67%
same,% CHANGE Brain Dopamine,[1]; [4],-8%
same,% CHANGE Brain Norepinephrine,[1]; [5],-51%
same,% CHANGE Heart Norepinephrine,[1]; [5],-68%
same,% CHANGE Brain Dopamine,[1]; [5],-6%
same,% CHANGE Brain Norepinephrine,[1]; [6],-49%
same,% CHANGE Heart Norepinephrine,[1]; [6],-72%
same,% CHANGE Brain Dopamine,[1]; [6],-10%
same,"5-Hydroxytriptamine, Cerebellum","[2]; control 30 ± 3, p < 0.01",11 ± 3 ng/g
same,"Dopamine, Brain Stem",[2]; control 37 ± 9,13 ± 4 ng/g
same,"Noradrenaline, Striatum",[2]; control 47 ± 13,46 ± 24 ng/g
same,"Noradrenaline, Cerebellum","[2]; control 137 ± 1, p < 0.001",17 ± 3 ng/g
same,"Noradrenaline, Olfactory Tubercles","[2]; control 360 ± 32, p < 0.01",126 ± 29 ng/g
same,"5-Hydroxytriptamine, Frontal Cortex","[2]; control 365 ± 23, p < 0.001",19 ± 7 ng/g
same,"Dopamine, Hypothalamus",[2]; control 399 ± 23,280 ± 69 ng/g
same,"Noradrenaline, Brain Stem","[2]; control 439 ± 47, p < 0.01",143 ± 9 ng/g
same,"5-Hydroxytriptamine, Striatum","[2]; control 591 ± 47, p < 0.001",50 ± 16 ng/g
same,"5-Hydroxytriptamine, Brain Stem","[2]; control 620 ± 35, p < 0.01",136 ± 50 ng/g
same,"5-Hydroxytriptamine, Olfactory Tubercles","[2]; control 699 ± 72, p < 0.01",87 ± 31 ng/g
same,"5-Hydroxytriptamine, Hypothalamus","[2]; control 1162 ± 306, p < 0.05",199 ± 44 ng/g
same,"Noradrenaline, Hypothalamus","[2]; control 1419 ± 107, p < 0.01",631 ± 37 ng/g
same,"Dopamine, Olfactory Tubercles","[2]; control 1954 ± 62, p < 0.001",403 ± 44 ng/g
same,"Dopamine, Striatum","[2]; control 7342 ± 357, p < 0.001",1466 ± 156 ng/g
